± gives the expanded uncertainty stated by the source.
Assay: mn = molality of the nth substance listed, in mol/kg
Conditions: 101 kPa, Liquid, Capillary tube (Ostwald / Ubbelohde) method, m2 = 0

O [water] + O=C(O)c1cccnc1 showed a viscosity (293.15 K) of 1.003 ± 0.008 mPa·s, a viscosity (298.15 K) of 0.8904 ± 0.0069 mPa·s and a viscosity (303.15 K) of 0.7973 ± 0.0061 mPa·s. The viscosity (308.15 K) was 0.7194 ± 0.0055 mPa·s and the viscosity (313.15 K) was 0.653 ± 0.0051 mPa·s.

From the NIST ThermoML archive (doi:10.1021/je100774p)
